The nature of series [1]: Stability in the presence of fetal calf serum. Format: in vitro ADME. Here is the method:
The influence of serum on the stability of primaquine (PQ) and its derivatives is determined by incubating these compounds at 37° C. at a concentration of 100 μg/ml in 95% fetal calf serum (FCS, Flow Laboratories) or human serum and phosphate-buffered saline (0.15 M PBSA, pH 7.2) as a control. All the solutions are sterilized by filtration on a Millipore filter (Millex GV) of porosity 0.20 μm.
At interval of time, 1-ml samples are withdrawn and the serum proteins are then extracted from them by precipitation with acetonitrile. For this purpose, an identical volume of acetonitrile is added to each sample. After vigorous mixing in a Vortex mixer, the samples are left for 1 hour at 4° C. and protected from light and then centrifuged for 5 minutes at 12,000 g. The supernatants are collected and then analyzed by HPLC (20- to 50-μl aliquot) under the standard conditions.
The results for the stability of primaquine and its two derivatives in the presence of fetal calf serum are recorded in Table 1; the results are expressed as a % of the initial concentration (time 0) after extraction.
^a : The compounds are incubated at 37° C. in the presence of
fetal calf serum (95% final) and then analyzed by spectrophotometry after
^b : The results represent the relative concentration of primaquine
(PQ) and of derivatives (PQX) in terms of the incubation time, expressed
as a percentage of the initial concentration (time 0) after extraction

A short description of series [2]: Acute toxicity in mice after a single i.v. administration. In kind it is in vivo. As to conditions: mouse, in vivo, iv, single i.v., mg PQ diphosphate equivalent/kg; for MTD: weight loss not exceeding 5% during 5 days, read-out: Maximum tolerated dose (MTD). Here is the method: (§1) The acute toxicity in terms of a single administered dose is determined on female Swiss OF1 mice weighing 22 to 25 g. A series of dilutions of each compound is injected intravenously into groups of 10 mice (0.1 ml per 10 g of weight).
(§2) The lethal dose for 50% of mice (LD50) is determined by linear regression of the logits of the percentage of surviving animals as a function of the logarithm of the dose injected (in mg PQ diphosphate equivalent/kg) (Logit Weighted Transformation, Berkson J., 1953; J. Am. Stat. Assoc. 48, 565-599).
(§3) ^a : The products are administered i.v. to groups of 10 female Swiss
(§4) ^b : Maximum tolerated dose (MTD), defined as the highest dose
(§5) The acute toxicity in terms of a single administered dose is determined under the same conditions and according the protocol of Example 3.

The test system of the next series is female Swiss OF1 mice. Described as above. Format: in vivo. The conditions noted are these: for Fold less toxic than PQ: mice, i.v.; for LD50 / Maximum tolerated dose (MTD): single i.v., mg PQ diphosphate equivalent/kg; for Maximum tolerated dose (MTD): weight loss not exceeding 5% during 5 days. How it is done: as §1, §2, §3, §4, §5
Series [3] in a line: Stability at room temperature. In kind it is physicochemical. As to conditions: for Stability at room temp. under inert atmosphere: argon.
The next series concerns human red cells. As to the kind of experiment: Hemolytic effect on human red cells. In kind it is cell-based.
The test system of series [4] is persistent tissue forms of P. vivax and P. ovale. As to conditions: persistent tissue forms of P. vivax and P. ovale in man; cited from earlier work.
The subject of another series is man. The conditions noted are these: human, in vivo, cited from earlier work.
Setting [5] is: bovine, fetal calf serum 95%, 37° C., 1 h, read-out: Relative concentration of compound (% of initial concentration).
[6] abbreviates: bovine, fetal calf serum 95%, 37° C., 1 h, read-out: Relative concentration of primaquine (PQ) from derivative.
Where [7] appears, read: bovine, fetal calf serum 95%, 37° C., 2 h, read-out: Relative concentration of compound (% of initial concentration).
The mark [8] stands for this setting: bovine, fetal calf serum 95%, 37° C., 2 h, read-out: Relative concentration of primaquine (PQ) from derivative.
Where [9] appears, read: bovine, fetal calf serum 95%, 37° C., 3 h, read-out: Relative concentration of compound (% of initial concentration).
Setting [10] is: bovine, fetal calf serum 95%, 37° C., 3 h, read-out: Relative concentration of primaquine (PQ) from derivative.
Setting [11] is: bovine, fetal calf serum 95%, 37° C., 6 h, read-out: Relative concentration of compound (% of initial concentration).
Where [12] appears, read: bovine, fetal calf serum 95%, 37° C., 6 h, read-out: Relative concentration of primaquine (PQ) from derivative.
Where [13] appears, read: bovine, fetal calf serum 95%, 37° C., 24 h, read-out: Relative concentration of compound (% of initial concentration).
Where [14] appears, read: bovine, fetal calf serum 95%, 37° C., 24 h, read-out: Relative concentration of primaquine (PQ) from derivative.
[15] abbreviates: fetal calf serum 95%, 37° C., 0 h.

The structures appear in SMILES notation. “Also recorded” adds a separate entry of the source. Like-named read-outs stand apart in the source and are kept apart here.

By MTD is commonly meant the largest dose that counted as tolerated.

Experimental for human red cells: Two important toxic effects of PQ were assessed on the two derivatives: the hemolytic effect and the conversion of hemoglobin to methemoglobin.
A+ blood is washed twice in 0.15M phosphatebuffered saline at pH 7.4 containing 20 mM glucose (GPBS), and then resuspended at a concentration of 50% in the same buffer. To this suspension, an equal volume of compound dissolved in GPBS at different concentrations (test), or of GPBS (control) is added. The final hematocrit of the suspension is 25%. After 60 minutes' incubation at 37° C., the concentration of hemoglobin and methemoglobin is determined on the total suspension, and the concentration of hemoglobin present in the supernatant after centrifugation (extracellular hemoglobin) is determined, by the cyanmethemoglobin and benzidine methods (Fairbanks V.F., 1976, in "Fundamentals of Clinical Chemistry, M.W. Tietz Editors, Saunders").

Regarding `COc1cc(NC(C)CCCNC(=O)CC[C@H](N)C(=O)O)c2ncccc2c1` (stereo partly drawn) [gGLU-PQ, N-(γ-L-glutamyl)primaquine], the remaining at 1 h in series [1] (setting [5]) stood at 96%. Also, the metabolised at 1 h in series [1] (setting [6]) is 3%. In addition, the remaining at 2 h in series [1] (setting [7]) is 95%. Also, in series [1] (setting [8]), the metabolised at 2 h came to 4%. In series [1] (setting [9]), the remaining at 3 h turned out to be 94%. The metabolised at 3 h in series [1] (setting [10]) came out at 4%. Also, the remaining at 6 h in series [1] (setting [11]) was found to be 83%. In series [1] (setting [12]), the metabolised at 6 h was determined as 4%. Also, in series [1] (setting [13]), the remaining at 24 h was determined as 51%. Besides, the metabolised at 24 h in series [1] (setting [14]) was 4%. Moreover, the “Duration of stability in serum” value in series [1] (fetal calf serum) is “at least 3 hours”. Besides, in series [1] (setting [15]), the “Relative concentration of compound (% of initial concentration)” value was 98 (1) % and the “Relative concentration of primaquine (PQ) from derivative” value is reported as 2 (1) %. For the same compound, the “Stability in the presence of serum” value in series [1] (37° C.) is given as “a gradual decrease in the relative concentration is observed after 6 hours' incubation”. For the same compound, in series [2], the LD50 worked out at 169 mg/kg and the MTD is 117 mg/kg. In addition, in the series with female Swiss OF1 mice, the “Fold less toxic than PQ” value was “at least 5 -fold”, the LD50 was 169 (9) mg/kg and the “Maximum tolerated dose (MTD)” value is 117 (13) mg/kg. In addition, in series [3], the “Stability at room temp. and in the air” value was “unstable”; the “Stability at room temp. under inert atmosphere” value is “stable”.

For `COc1cc(NC(C)CCCNC(=O)[C@@H]2CCC(=O)N2)c2ncccc2c1` (stereo partly drawn) [pGLU-PQ, N-(α-L-pyroglutamyl)primaquine], the remaining at 1 h in series [1] (setting [5]) was determined as 100%. For the same compound, the metabolised at 1 h in series [1] (setting [6]) stood at 0%. Further, the remaining at 2 h in series [1] (setting [7]) was 101%. In addition, in series [1] (setting [8]), the metabolised at 2 h worked out at 0%. In addition, the remaining at 3 h in series [1] (setting [9]) amounted to 105%. For the same compound, in series [1] (setting [10]), the metabolised at 3 h is 0%. Further, the remaining at 6 h in series [1] (setting [11]) came to 103%. The metabolised at 6 h in series [1] (setting [12]) came out at 0%. For the same compound, the remaining at 24 h in series [1] (setting [13]) was 107%. Also, the metabolised at 24 h in series [1] (setting [14]) was 0%. For the same compound, in series [1] (bovine, fetal calf serum 95%, 37° C., 48 h, read-out: Relative concentration of compound (% of initial concentration)), the remaining at 48 h is 87%. For the same compound, the metabolised at 48 h in series [1] (bovine, fetal calf serum 95%, 37° C., 48 h, read-out: Relative concentration of primaquine (PQ) from derivative) was found to be 0%. Besides, in series [1] (setting [15]), the “Relative concentration of compound (% of initial concentration)” value came to 100% and the “Relative concentration of primaquine (PQ) from derivative” value was determined as 0%. For the same compound, in series [1] (37° C.), the “Stability in the presence of serum” value is on record as “undergoes no modification”. In addition, in series [2], the LD50 was 159 mg/kg and the MTD worked out at 126 mg/kg. In the series with female Swiss OF1 mice, the “Fold less toxic than PQ” value was “at least 5 -fold”, the LD50 is given as 159 (6) mg/kg and the “Maximum tolerated dose (MTD)” value is 126 (13) mg/kg. Besides, in series [3], the “Stability at room temp. and in the air” value is given as “unstable”; the “Stability at room temp. under inert atmosphere” value is reported as “stable”.

On to `COc1cc(NC(C)CCCN)c2ncccc2c1` (centres unmarked) [Primaquine, 6-methoxy-8-(4-amino-1-methylbutylamino)quinoline, reference compound], for which, in series [1] (bovine, fetal calf serum, fetal calf serum 95%, 37° C., 1 h, read-out: Relative concentration of compound (% of initial concentration)), the remaining at 1 h amounted to 98%. Moreover, the remaining at 2 h in series [1] (bovine, fetal calf serum, fetal calf serum 95%, 37° C., 2 h, read-out: Relative concentration of compound (% of initial concentration)) was found to be 87%. In series [1] (bovine, fetal calf serum, fetal calf serum 95%, 37° C., 3 h, read-out: Relative concentration of compound (% of initial concentration)), the remaining at 3 h stood at 77%. Further, the remaining at 6 h in series [1] (bovine, fetal calf serum, fetal calf serum 95%, 37° C., 6 h, read-out: Relative concentration of compound (% of initial concentration)) came to 34%. Besides, the “Relative concentration of compound (% of initial concentration)” value in series [1] (setting [15]) was determined as 100%; in series [1] (fetal calf serum 95%, 37° C., 24 h, 1440 min), 2%; in series [1] (fetal calf serum 95%, 37° C., 24 h, listed as primaquine, 1440 min), 7%. Also, the “Second HPLC peak (Y) from primaquine” value in series [1] (setting [15]) amounted to 0%; in series [1] (fetal calf serum 95%, 37° C., 1 h), 0%; in series [1] (fetal calf serum 95%, 37° C., 2 h), 5%; in series [1] (fetal calf serum 95%, 37° C., 3 h) it was 10%; in series [1] (fetal calf serum 95%, 37° C., 6 h) it was 11%; in series [1] (fetal calf serum 95%, 37° C., 24 h), 5%. Also, in series [1] (fetal calf serum, after 2 hours' incubation), the “Second peak (Y), maximum” value is given as at most 10%. Also, in series [1] (37° C.), the “Stability in the presence of serum” value is given as “unstable”. The “Hemolytic effect” value with human red cells is reported as “concentration-dependent hemolytic effect”. The “Hemolysis (% of total hemoglobin concentration)” value in the series with human red cells (10 mM, 1 hour, 37° C., 60 min, 10000 µM) is recorded as 4.7 (1.7) %. Also, the MTD in series [2] was determined as 24 mg/kg. Further, the “Maximum tolerated dose (MTD)” value in the series on female Swiss OF1 mice is recorded as 24 (2.1) mg/kg. For the same compound, the “Clinical effectiveness” value in series [4] was “clinically effective”. In addition, the “Toxic effects (words)” value with man was “destabilizes the red cell membrane, inducing a hemolysis”; in the series with man (listed as primaquine), “hemolysis; also recorded: Methemoglobinuria and gastrointestinal disorders as well as certain effects on the central nervous system”.

These data come from patent US5110935A, “New compounds which are active against the tissue forms of malaria and method of preparation” (Ire-Celltarg, S.A., priority 1988, dated 1992).
